Earlier results in patent publication US20170008834A1, “FUMARATE COMPOUNDS, PHARMACEUTICAL COMPOSITIONS THEREOF, AND METHODS OF USE” (priority 2015, published 2017).

aqueous solubility: poor
SMILES: COC(=O)/C=C/C(=O)OC [DMF, dimethylfumarate]
